In patent publication US7700644B2, “Isoflavonoid dimers” (Novogen Research Pty Ltd, priority 2005, dated 2010):

Columns and labels:
[1] = test system: RK-13 (rabbit kidney) cells; experiment: Normal cell toxicity, MTT proliferation assay, rabbit kidney cells; format: cell-based; conditions: Oryctolagus cuniculus, 24 hrs
Description: Neonatal foreskin fibroblasts (NFF) were a gift from Dr. Peter Parsons (Queensland Institute of Medical Research). RK-13 (rabbit kidney) cells were obtained from Miller Whalley (Macquarie University). Both cell types were cultured in RPMI supplemented with 10% FCS (CSL, Australia), penicillin (100 U/ml), streptomycin ([…]), L-glutamine (2 mM) and sodium bicarbonate (1.2 g/L), and cultured at 37° C. in a humidified atmosphere of 5% CO2.
(§1) IC50 values were determined for each cell line. Cells were seeded in 96-well plates at an appropriate cell density as determined from growth kinetics analysis. NFFs were cultured for 5 days and RK-13s for 24 hrs in the absence and presence of the test compounds. Cell proliferation was assessed after the addition of 20 μl of 3-4,5 dimethylthiazol-2,5-diphenyl tetrazolium bromide (MTT, 2.5 mg/ml in PBS, Sigma) for 3-4 hrs at 37° C. according to manufacturer's instructions. IC50 values were calculated from semi-log plots of % of control proliferation on the y-axis against log dose on the x-axis.

HCT-15 (Colorectal) = experiment: In vitro cytotoxicity, MTT proliferation assay, HCT-15; format: cell-based, human; conditions: Homo sapiens; Colorectal HCT-15
Description: (§2) The human pancreatic cancer cell line, HPAC (CRL-2119) was routinely cultured in 1:1 mixture DMEM (Sigma) plus Ham's F12 (Sigma) medium containing HEPES (15 mM), insulin (0.002 mg/ml), transferrin (0.005 mg/ml), hydrocortisone, (40 ng/ml), epidermal growth factor (10 ng/ml). The ovarian cancer cell line CP70 was obtained as a gift from Dr. Gil Mor (Yale University) and cultured in a 1:1 mixture DMEM plus Ham's F12 medium, and SKOV-3 was purchased from ATCC and cultured in McCoy's 5a medium. The breast cancer cell line MDA-MB-468 cultured in Leibovitz's L-15 medium.
(§3) All cultures were supplemented with 10% FCS(CSL, Australia), penicillin (100 U/ml), streptomycin ([…]), L-glutamine (2 mM) and sodium bicarbonate (1.2 g/L), and cultured at 37° C. in a humidified atmosphere of 5% CO2. All remaining cell lines were purchased from ATCC (Maryland, USA) except where noted.
as §1

[2] = test system: human pancreatic cancer cell line, HPAC (CRL-2119); experiment: In vitro cytotoxicity, MTT proliferation assay, CRL-2119; format: cell-based; conditions: Homo sapiens, HPAC; Pancreatic CRL-2119
Description: as §2, §3, §1

RPMI-8226 (Leukemic) = experiment: In vitro cytotoxicity, MTT proliferation assay, RPMI-8226; format: cell-based; conditions: Homo sapiens; Leukemic RPMI-8226
Description: as §2, §3
as §1, with “NFFs were cultured for 5 days and RK-13s for 24 hrs in the absence and presence of the test compounds.” left out

[3] = test system: breast cancer cell line MDA-MB-468; experiment: In vitro cytotoxicity, MTT proliferation assay, MDA-MB-468; format: cell-based, human; conditions: Homo sapiens; Breast MDA-MB-468
Description: as §2, §3, §1

NCI-H460 (Lung) = experiment: In vitro cytotoxicity, MTT proliferation assay, NCI-H460; format: cell-based, human; conditions: Homo sapiens
Description: as §2, §3, §1

TXB2 = TXB2 in murine macrophages (RAW 264.7) stimulated with LPS; format: cell-based, mouse; conditions: RAW 264.7, LPS 50 ng/ml, 16 hrs, dose responsive
Description: The mouse macrophage cell line RAW 264.7 was cultured in DMEM supplemented with FCS, 2 mM glutamine and 50 U/ml penicillin/streptomycin. Subconfluent cells were detached from the flask by gentle scraping and 24-well plates seeded at 5×10^5 cells per well and allowed to adhere for 1 hr. Cells were then treated either test compounds (in 0.025% DMSO) or vehicle alone, and incubated for 1 hr. LPS 50 ng/ml (LPS —Sigma-Aldrich) was then added. After incubation for 16 hrs, culture media was collected and stored at −80° C. for ecosanoid and cytokine measurements using enzyme immunometric assays (PGE2 and TXB2—Cayman Chemical and TNFα—Becton Dickinson).

LNCaP (Prostate) = experiment: In vitro cytotoxicity, MTT proliferation assay, LNCaP; format: cell-based, human; conditions: Homo sapiens
Description: as §2, §3, §1

MM200 (Melanoma) = experiment: In vitro cytotoxicity, MTT proliferation assay, MM200; format: cell-based, human; conditions: Homo sapiens
Description: as §2, §3, §1

SKOV-3 (Ovarian) = experiment: In vitro cytotoxicity, MTT proliferation assay, SKOV-3; format: cell-based, human; conditions: Homo sapiens, SK-OV-3; Ovarian SKOV-3
Description: as §2, §3, §1

CCRF-CEM (Leukemic) = experiment: In vitro cytotoxicity, MTT proliferation assay, CCRF-CEM; format: cell-based; conditions: Homo sapiens
Description: as §2, §3
as §1, with “NFFs were cultured for 5 days and RK-13s for 24 hrs in the absence and presence of the test compounds.” left out

A2780 (Ovarian) = experiment: In vitro cytotoxicity, MTT proliferation assay, A2780; format: cell-based, human; conditions: Homo sapiens
Description: as §2, §3, §1

[4] = Oral pharmacokinetics in mice; format: in vivo, female BALB/c mice; conditions: 50 mg/kg
Description: 4,9-Dihydroxy-14,15-dimethoxy-12a-(3′,4′-dimethoxyphenyl)-3,10-dimethyl-2,11-dioxa-(1H,12H)-6b,6c,12a,16b-tetrahydronaphtho[1,2-g]chrysene (2) from Example 6.1 was prepared as homogenous suspensions in 1% CMC (m:v, water). The Cpd. 2 formulation was delivered orally by gavage to female BALB/c mice at a dosage of 50 mg/kg. Three animals were allocated to each time point (15 min, 30 min, 1 hr, 4 hr and 24 hr). At each respective time point, animals were euthanased by cervical dislocation and blood collected. Free Cpd.

With `COc1ccc(C23COc4c(ccc(O)c4C)C2C2c4ccc(O)c(C)c4OCC2c2cc(OC)c(OC)cc23)cc1OC` (stereo not shown) [Cpd. 2, 4,9-Dihydroxy-14,15-dimethoxy-12a-(3′,4′-dimethoxyphenyl)-3,10-dimethyl-2,11-dioxa-(1H,12H)-6b,6c,12a,16b-tetrahydronaphtho[1,2-g]chrysene] the IC50 [1] was 36 ± 2.7 µM, the IC50 (HCT-15 (Colorectal)) was 54.7 ± 28 µM and the IC50 [2] was 11.2 ± 4.7 µM. It also gave an IC50 (RPMI-8226 (Leukemic)) of 15.2 µM, an IC50 [3] of 8.59 ± 0.35 µM and an IC50 (NCI-H460 (Lung)) of 11.3 ± 4.97 µM. For the same molecule, the “effect on TXB2” value (TXB2) was “inhibited”, the IC50 (LNCaP (Prostate)) was 12 ± 4.3 µM and the IC50 (MM200 (Melanoma)) was 6.5 µM. The IC50 (SKOV-3 (Ovarian)) was 16.7 ± 10 µM, the IC50 (CCRF-CEM (Leukemic)) was 10.3 ± 1.33 µM and the IC50 (A2780 (Ovarian)) was 10.16 ± 0.07 µM. For the same molecule, the concentration at 15 min ([4]; female, BALB/c, mouse, blood, oral gavage, Time 0.25 (15 min), read-out: Free concentration in blood) was 1.33 µM, the concentration at 30 min ([4]; female, BALB/c, mouse, blood, oral gavage, Time 0.5 (30 min), read-out: Free concentration in blood) was 4.93 µM and the concentration at 1 h ([4]; female, BALB/c, mouse, blood, oral gavage, Time 1 (1 hr), read-out: Free concentration in blood) was 6.76 µM. For the same molecule, the concentration at 4 h ([4]; female, BALB/c, mouse, blood, oral gavage, Time 4 (4 hr), read-out: Free concentration in blood) was 6.31 µM, the concentration at 24 h ([4]; female, BALB/c, mouse, blood, oral gavage, Time 24 (24 hr), read-out: Free concentration in blood) was 1.15 µM and the “half-life compared to dehydroequol” value ([4]; oral) was “superior half-life at times up to 4 hours compared to dehydroequol”. The “rate of conjugation compared to dehydroequol” value ([4]; oral) was “slow rate of conjugation compared to dehydroequol”.
